# Reference: patent publication US20250295732A1, “COMPOSITIONS AND METHODS FOR ACTIVATING INNATE IMMUNITY” (Zoetis Services LLC, priority 2021, published 2025)
# Test system: bovine monocyte-derived macrophages
# Test: microRNASeq analysis
# Format: cell-based
# Settings: CATH2 vs vehicle
# Text: Peripheral blood mononuclear cells (PBMC) were isolated from bovine blood using ficoll gradients. Bovine monocytes were isolated from PBMC using magnetic assisted cell sorting to positively select for CD14+ cells using anti-human CD14 microbeads (Miltenyi Biotec). Purified bovine blood CD14+ monocytes were differentiated into macrophages using an M2-skewing differentiation factor (recombinant bovine M-CSF) over 7 days then exposed to CATH2 or a vehicle control in the presence of bovine casein to mimic aspects of the mammary gland for 24 hr. Following treatment, vehicle and drug were removed and cells were washed to eliminate residual drug and monocyte-derived macrophages were rested for 3 days in order to assess reprogramming. Following the rest period, a subset of vehicle- and CATH2-trained monocyte-derived macrophages were assessed for epigenetic and transcriptomic changes. The remaining cells were challenged with LPS or E. coli bioparticle labeled with pH-sensitive pHrodo green dye and key parameters for macrophage activation/immune response were assessed including glycolytic activity, surface marker expression, gene expression, cytokine production, phagocytosis, reactive nitrogen species production, and miRNA profiling.
# Bovine monocyte-derived macrophages were lysed in Buffer RLT with addition of (3-mercaptoethanol (QIAGEN) and stored at −80° C. until miRNA/mRNA isolations could be performed. Total RNA including miRNA was isolated from cell lysates using the miRNeasy Tissues/Cells Advanced kit (QIAGEN) following the manufacturer's instructions. mRNA and miRNA libraries were prepared using the TruSeq Stranded mRNA Library Prep Kit (Illumina) and QIAseq miRNA Library Kit, respectively (QIAGEN) according to the manufacturer's instructions. Libraries were run on the Illumina NextSeq550 System. Sequencing data were analyzed using CLC Genomics Workbench software and QIAGEN Ingenuity Pathway Analysis (IPA).
# [1] = 3-day rest, 8-hour post-LPS, Experiment A
# [2] = 3-day rest, 8-hour post-LPS, Experiment B
# [3] = 3-day rest, 24-hour post-LPS, Experiment A
# [4] = 3-day rest, 24-hour post-LPS, Experiment B
# [5] = after 3-day rest, prior to LPS challenge
sequence,measurement,setting,value
"RFGRFLRKIRRFRPKVTITIQGSARFG [CATH2, cathelicidin 2 peptide]",bta-miR-146b Fold change,[1],2.85
same,bta-miR-146b Log2 fold change,[1],1.51
same,bta-miR-148a Fold change,[1],−1.79
same,bta-miR-148a Log2 fold change,[1],−0.84
same,bta-miR-181b Fold change,[1],1.60
same,bta-miR-181b Log2 fold change,[1],0.68
same,bta-miR-1814c Fold change,[1],−1.77
same,bta-miR-1814c Log2 fold change,[1],−0.83
same,hsa-miR-155-5p Fold change,[1],1.89
same,hsa-miR-155-5p Log2 fold change,[1],0.92
same,bta-miR-146b Fold change,[2],1.56
same,bta-miR-146b Log2 fold change,[2],0.64
same,bta-miR-148a Fold change,[2],−1.44
same,bta-miR-148a Log2 fold change,[2],−0.52
same,bta-miR-181b Fold change,[2],1.76
same,bta-miR-181b Log2 fold change,[2],0.82
same,bta-miR-1814c Fold change,[2],−2.05
same,bta-miR-1814c Log2 fold change,[2],−1.04
same,hsa-miR-155-5p Fold change,[2],2.20
same,hsa-miR-155-5p Log2 fold change,[2],1.14
same,bta-miR-146b Fold change,[3],4.52
same,bta-miR-146b Log2 fold change,[3],2.18
same,hsa-miR-146b-5p Fold change,[3],2.27
same,hsa-miR-146b-5p Log2 fold change,[3],1.18
same,bta-miR-146b Fold change,[4],4.34
same,bta-miR-146b Log2 fold change,[4],2.12
same,hsa-miR-146b-5p Fold change,[4],1.71
same,hsa-miR-146b-5p Log2 fold change,[4],0.77
same,bta-miR-27a-3p Fold change,[5],−1.31
same,bta-miR-27a-3p Log fold change,[5],−0.39
same,bta-miR-29a Fold change,[5],−1.36
same,bta-miR-29a Log fold change,[5],−0.44
same,bta-miR-29c Fold change,[5],−1.45
same,bta-miR-29c Log fold change,[5],−0.54
same,bta-miR-30f Fold change,[5],1.57
same,bta-miR-30f Log fold change,[5],0.65
same,bta-miR-92b Fold change,[5],1.52
same,bta-miR-92b Log fold change,[5],0.60
same,bta-miR-101 Fold change,[5],−1.47
same,bta-miR-101 Log fold change,[5],−0.55
same,bta-miR-142-5p Fold change,[5],−1.43
same,bta-miR-142-5p Log fold change,[5],−0.51
same,bta-miR-148a Fold change,[5],−1.78
same,bta-miR-148a Log fold change,[5],−0.83
same,bta-miR-148b Fold change,[5],−1.43
same,bta-miR-148b Log fold change,[5],−0.51
same,bta-miR-149-5p Fold change,[5],1.43
same,bta-miR-149-5p Log fold change,[5],0.52
same,bta-miR-181b Fold change,[5],1.38
same,bta-miR-181b Log fold change,[5],0.47
same,bta-miR-184 Fold change,[5],2.61
same,bta-miR-184 Log fold change,[5],1.38
same,bta-miR-187 Fold change,[5],−2.07
same,bta-miR-187 Log fold change,[5],−1.05
same,bta-miR-193a-5p Fold change,[5],1.60
same,bta-miR-193a-5p Log fold change,[5],0.68
same,bta-miR-197 Fold change,[5],1.37
same,bta-miR-197 Log fold change,[5],0.46
same,bta-miR-199a-3p Fold change,[5],1.92
same,bta-miR-199a-3p Log fold change,[5],0.94
same,bta-miR-296-5p Fold change,[5],2.10
same,bta-miR-296-5p Log fold change,[5],1.07
same,bta-miR-320a Fold change,[5],1.68
same,bta-miR-320a Log fold change,[5],0.75
same,bta-miR-326 Fold change,[5],1.47
same,bta-miR-326 Log fold change,[5],0.55
same,bta-miR-331-3p Fold change,[5],1.61
same,bta-miR-331-3p Log fold change,[5],0.69
same,bta-miR-365-3p Fold change,[5],1.59
same,bta-miR-365-3p Log fold change,[5],0.67
same,bta-miR-374a Fold change,[5],−1.59
same,bta-miR-374a Log fold change,[5],−0.67
same,bta-miR-500 Fold change,[5],1.43
same,bta-miR-500 Log fold change,[5],0.51
same,bta-miR-652 Fold change,[5],1.46
same,bta-miR-652 Log fold change,[5],0.54
same,bta-miR-877 Fold change,[5],1.93
same,bta-miR-877 Log fold change,[5],0.95
same,bta-miR-1249 Fold change,[5],1.43
same,bta-miR-1249 Log fold change,[5],0.52
same,bta-miR-1260b Fold change,[5],1.63
same,bta-miR-1260b Log fold change,[5],0.70
same,bta-miR-1307 Fold change,[5],1.49
same,bta-miR-1307 Log fold change,[5],0.57
same,bta-miR-2285bf Fold change,[5],−1.52
same,bta-miR-2285bf Log fold change,[5],−0.61
same,bta-miR-2447 Fold change,[5],1.92
same,bta-miR-2447 Log fold change,[5],0.94
same,bta-miR-6523a Fold change,[5],1.39
same,bta-miR-6523a Log fold change,[5],0.47
same,bta-miR-6529a Fold change,[5],1.32
same,bta-miR-6529a Log fold change,[5],0.40
same,hsa-let-7d-3p Fold change,[5],1.62
same,hsa-let-7d-3p Log fold change,[5],0.70
same,hsa-miR-30e-5p Fold change,[5],−1.45
same,hsa-miR-30e-5p Log fold change,[5],−0.54
same,hsa-miR-16-1-3p Fold change,[5],−2.57
same,hsa-miR-16-1-3p Log fold change,[5],−1.36
same,hsa-miR-21-5p Fold change,[5],−1.33
same,hsa-miR-21-5p Log fold change,[5],−0.41
same,hsa-miR-29a-3p Fold change,[5],−1.32
same,hsa-miR-29a-3p Log fold change,[5],0.40
same,hsa-miR-29b-1-5p Fold change,[5],1.90
same,hsa-miR-29b-1-5p Log fold change,[5],0.92
same,hsa-miR-142-3p Fold change,[5],−1.57
same,hsa-miR-142-3p Log fold change,[5],−0.65
same,hsa-miR-142-5p Fold change,[5],−1.55
same,hsa-miR-142-5p Log fold change,[5],−0.63
same,hsa-miR-143-3p Fold change,[5],−1.96
same,hsa-miR-143-3p Log fold change,[5],−0.97
same,hsa-miR-152-3p Fold change,[5],−1.37
same,hsa-miR-152-3p Log fold change,[5],0.45
same,hsa-miR-155-5p Fold change,[5],1.31
same,hsa-miR-155-5p Log fold change,[5],0.39
same,hsa-miR-192-5p Fold change,[5],−1.47
same,hsa-miR-192-5p Log fold change,[5],−0.56
same,hsa-miR-340-5p Fold change,[5],−1.47
same,hsa-miR-340-5p Log fold change,[5],−0.56
same,hsa-miR-532-3p Fold change,[5],1.51
same,hsa-miR-532-3p Log fold change,[5],0.60
same,hsa-miR-574-3p Fold change,[5],1.36
same,hsa-miR-574-3p Log fold change,[5],0.44
same,hsa-miR-1260b Fold change,[5],2.19
same,hsa-miR-1260b Log fold change,[5],1.13
same,hsa-miR-9983-3p Fold change,[5],−1.40
same,hsa-miR-9983-3p Log fold change,[5],0.48
same,hsa-miR-10395-3p Fold change,[5],−2.92
same,hsa-miR-10395-3p Log fold change,[5],−1.55
same,hsa-miR-12135 Fold change,[5],−1.63
same,hsa-miR-12135 Log fold change,[5],−0.71
same,Number of miRNAs significantly altered,"after rest period, prior to LPS challenge",51
